Columns and labels:
[1] = tested on: HL60 MDR human leukemia cells; assay: percent death of HL60 MDR cells (flow cytometry, live versus dead); format: cell-based
Protocol: Dot plots as a function of live versus dead cells. The cells were cultured at a concentration of 0.5 to 1 million cells per ml. Cells were untreated or treated with or 2-deoxy-D-glucose and/or etomoxir and/or antibodies to UCP2 and used at dilutions or concentrations as indicated on the figure. The cells were cultured in the presence or absence of etomoxir at 100 micrograms/ml for 24 hours followed by treatment with antibody as indicated for an additional 24 or 48 hours (i.e. totals of 48 hours or 72 hours respectively). Cells were harvested and analyzed by flow cytometry. Each dot on the dot plot represents one cell. Five thousand cells were assessed for forward scatter (FS), as a function of cell size, versus side scatter (SS), as a function of cellular granularity. The upper elipse represents live cells by these criterion and the lower elipse in each dot plot represents the dead cells.
HL60 MDR human leukemia cells were cultured as described above under “Materials and Methods”. Cells were untreated or treated with etomoxir, with 2-deoxy-D-glucose, or with a combination of etomoxir and 2-deoxy-D-glucose, at concentrations indicated in FIG. 27 for 24 hours. Cells were harvested and analyzed by flow cytometry.
Referring to FIGS. 31 and 32, HL60 MDR cells, cultured as described in Example 21, were untreated or treated with etomoxir, with 2-deoxy-D-glucose, or with a combination of etomoxir and 2-deoxy-D-glucose, at concentrations indicated in FIG. 31 for 48 hours. Cells were harvested and analyzed by flow cytometry.
Referring to FIGS. 35 and 36, HL60 MDR cells, cultured as described in Example 21, were treated with anti-UCP2 antibody and otherwise untreated or treated simultaneously with etomoxir, 2-deoxy-D-glucose, or both, at concentrations indicated in FIG. 35 for 48 hours. Cells were harvested and analyzed by flow cytometry.

[2] = tested on: RD cells (rhabdomyosarcoma cells-not drug resistant); assay: percent death of RD cells (flow cytometry, live versus dead); format: cell-based
Protocol: The cells were cultured at a concentration of 0.5 to 1 million cells per ml. Cells were untreated or treated with or 2-deoxy-D-glucose and/or etomoxir and/or antibodies to UCP2 and used at dilutions or concentrations as indicated on the figure. The cells were cultured in the presence or absence of etomoxir at 100 micrograms/ml for 24 hours followed by treatment with antibody as indicated for an additional 24 or 48 hours (i.e. totals of 48 hours or 72 hours respectively). Cells were harvested and analyzed by flow cytometry. Each dot on the dot plot represents one cell. Five thousand cells were assessed for forward scatter (FS), as a function of cell size, versus side scatter (SS), as a function of cellular granularity. The upper elipse represents live cells by these criterion and the lower elipse in each dot plot represents the dead cells.
Referring to FIGS. 29 and 30, RD cells (rhabdomyosarcoma cells-not drug resistant), cultured as described above under “Materials and Methods” were untreated or treated with etomoxir, with 2-deoxy-D-glucose, or with a combination of etomoxir and 2-deoxy-D-glucose, at concentrations indicated in FIG. 29 for 24 hours. Cells were harvested and analyzed by flow cytometry.
Referring to FIGS. 33 and 34, RD cells, cultured as described in Example 22, were untreated or treated with etomoxir, with 2-deoxy-D-glucose, or with a combination of etomoxir and 2-deoxy-D-glucose, at concentrations indicated in FIG. 33 for 48 hours. Cells were harvested and analyzed by flow cytometry.
Referring to FIGS. 37 and 38, RD cells, cultured as described in Example 22, were treated with anti-UCP2 antibody and otherwise untreated or treated simultaneously with etomoxir, 2-deoxy-D-glucose, or both, at concentrations indicated in FIG. 37 for 48 hours. Cells were harvested and analyzed by flow cytometry.

HL60 MDR tumor = assay: tumor volume of HL60 MDR tumor implanted in nude mice; format: in vivo; settings: for tumor volume: 200 ug Etomoxir, 2.5 mM 2-Deoxy-D-glucose
Source text: Tumor implantation. Mice were purchased from the Animal Production Program of National Cancer Institute, Frederick, Md. The animals used were Athymic Ncr-nu/nu (strain code 01B74). HL60 MDR cells were harvested and reconstituted at 1 million cells per 100 microliters of phosphate buffered saline. One million tumor cells per injection site were implanted subcutaneously on two sites of the animal's back. Treatments began at exactly seven days post tumor implantation. Tumor size/volume was monitored twice weekly using measurement calipers, with the formula Tumor Volume=π×(short diameter)^2×(long diameter)/6.
Mice experiments with fatty acid metabolism and glucose metabolism inhibitors. Fatty acid metabolism inhibitors were exemplified by etomoxir at 200 micrograms/day. Glucose metabolism inhibitors were exemplified by 2-deoxy-D-glucose at 2.5 mM in 100 microliters daily. The combination was administered daily, etomoxir at 200 micrograms and 2-deoxy-D-glucose at 2.5 mM in 100 microliters. All drugs were administered intra-peritoneally. Fluorouracil, at 20 mg per kilogram mouse, was injected intra-peritoneally once a week
HL60 MDR human leukemia cells were cultured and implanted in nude mice as described above under “Materials and Methods”. The mice were given 200 ug of Etomoxir, 2.5 mM 2-Deoxy-D-glucose, or both 200 ug of Etomoxir and 2.5 mM 2-Deoxy-D-glucose given daily by IP injection. Treatment began exactly one week after tumor implantation.
Mice were purchased from National Cancer Institute, Animal Production Program (Frederick, Md.). The animals used were Athymic Ncr-nu/nu (Strain code 01B74). HL60 MDR cells were harvested and reconstituted at 1 million cells per 100 microliters of phosphate buffered saline. One million tumor cells/per injection site were implanted subcutaneously on two sites of the animal's back. Treatments began at exactly seven days post tumor implantation. Tumor size/volume was monitored twice weekly using measurement calipers with the formula for Tumor Volume=π(short diameter)^2(long diameter)/(divided by )6. […]

[3] = 5-FU that is taken up by the cell; cited from earlier work
B16F1 = assay: % death of B16F1 cells treated or not with cerulenin (flow cytometry); format: cell-based, mouse; settings: B16F1, 25 ug/mL Cerulenin
Protocol: (§1) Statistical Analysis, Percents, and Geometric Mean Values Percents. Gating is a tool provided by Cell Quest software and allows for the analysis of a certain population of cells. Gating around both the live and dead cell populations gave a percent of the cell numbers that was in each population. After the gates were drawn, a percent value of dead cells was calculated by taking the number of dead cells divided by the number of total cells and multiplying by one hundred.
(§2) This example illustrates an embodiment of the invention, where multi-drug resistant cancer cells were exposed to compositions of the invention. Analysis of the cells was performed using flow cytometry. The flow cytometry experiments were performed as follows. The cells were harvested, counted, and resuspended as described above. For DNA staining, the cells were washed and resuspended in ice-cold PBS and fixed by the dropwise addition of 95% ethanol. The cells were then incubated for 30 minutes on ice, washed, and resuspended in PBS containing 1% formaldehyde and 0.01% Tween. The cells were incubated with 50 units of DNAse and washed with PBS containing 5% DNAse. The cells were then incubated with anti DNA Fab (166, kind gift of Dr. Susan Wallace, University of Vermont), then washed and stained with a fluorescein conjugated second step anti-mouse immunoglobulin. The cells were then washed and resuspended in PBS/3% BSA/1% formaldehyde. The cells were stained for intracellular H2O2 using 6-carboxy-2′,7′-dichlorodihydrofluorescein diacetate (DCF-DA, Molecular Probes, Eugene, Oreg.). The cells were incubated with 1 mM DCF-DA for 20 minutes, washed twice in PBS containing 5% fetal calf serum and analyzed using flow cytometry. The mitochondrial membrane potential was assessed using MitoTracker Red (CM-H2XROS, Molecular Probes, Eugene, Oreg.). The cells were resuspended in warm (37° C.) PBS containing a final concentration of 0.5 micromolar of dye. The cells were then incubated for 30 minutes, pelleted, and resuspended in prewarmed medium for analysis. The data was acquired on a Coulter Elite Epics or Excel flow cytometer (Coulter, Hialeah, Fla.) and analyzed with CellQuest software, (Becton Dickinson, San Jose, Calif.). […] Each sample population was classified for cell size (forward scatter) and complexity (side scatter), gated on a population of interest and evaluated using 40,000 cells. Each figure describing flow cytometric data represents one of at least four replicate experiments. […]
(§3) The flow cytometry experiments were performed as follows. Once the samples were prepared and transferred into flow cytometric tubes, the samples were analyzed on a Becton/Dickinson Flow Cytometer. […] Statistical analysis, percents, and geometric mean values percents were calculated as described above.

HL60 = assay: % death / microscopy of HL60 cells treated or not with cerulenin; format: cell-based, human; settings: for % Death: HL60, 25 ug/mL Cerulenin
Protocol: as §1
(§4) This example illustrates an embodiment of the invention, where multi-drug resistant cancer cells were exposed to compositions of the invention. Analysis of the cells was performed using flow cytometry. The flow cytometry experiments were performed as follows. The cells were harvested, counted, and resuspended as described above. For DNA staining, the cells were washed and resuspended in ice-cold PBS and fixed by the dropwise addition of 95% ethanol. The cells were then incubated for 30 minutes on ice, washed, and resuspended in PBS containing 1% formaldehyde and 0.01% Tween. The cells were incubated with 50 units of DNAse and washed with PBS containing 5% DNAse. […] The cells were incubated with 1 mM DCF-DA for 20 minutes, washed twice in PBS containing 5% fetal calf serum and analyzed using flow cytometry. The mitochondrial membrane potential was assessed using MitoTracker Red (CM-H2XROS, Molecular Probes, Eugene, Oreg.). […] The data was acquired on a Coulter Elite Epics or Excel flow cytometer (Coulter, Hialeah, Fla.) and analyzed with CellQuest software, (Becton Dickinson, San Jose, Calif.). […] Each sample population was classified for cell size (forward scatter) and complexity (side scatter), gated on a population of interest and evaluated using 40,000 cells. […]
as §3, with “above. […]” for “above.”

HL60 MDR = assay: % death / microscopy of HL60 MDR cells treated or not with cerulenin; format: cell-based, human; settings: for % Death: 25 ug/mL Cerulenin
Protocol: as §1, §2
as §3, with “above. […]” for “above.”

L1210 = assay: % death of L1210 cells treated or not with cerulenin (flow cytometry); format: cell-based; settings: L1210, 25 ug/mL Cerulenin
Protocol: as §1
as §4, with “above.” for “above. For DNA staining, the cells were washed and resuspended in ice-cold PBS and fixed by the dropwise addition of 95% ethanol. The cells were then incubated for 30 minutes on ice, washed, and resuspended in PBS containing 1% formaldehyde and 0.01% Tween. The cells were incubated with 50 units of DNAse and washed with PBS containing 5% DNAse.”

L1210 DDP = assay: % death of L1210 DDP cells treated or not with cerulenin (flow cytometry); format: cell-based; settings: for % Death: 25 ug/mL Cerulenin
Protocol: as §1, §4, §3

B16F1 melanoma cells = assay: mice injected with B16F1 melanoma cells exposed or not to cerulenin; format: in vivo; settings: for tumor observation and activity of mouse: B16F1 10^6 cells treated w/25 ug/ml cerulenin 5.0 hrs before injection
Source text: Highly carcinogenic B16F1 melanoma cells were either exposed (“treated”) or not exposed to cerulenin, then injected into male mice.

OC[C@H]1O[C@H](O)CC(O)[C@@H]1O (stereo partly drawn) [2-deoxy-D-glucose]
percent of cell deaths ([1]; HL60 MDR cells after 24 hours): 16%
percent of cell deaths ([1]; HL60 MDR cells after 48 hours): 38%
percent of cell deaths ([2]; RD cells after 24 hours): 46%
percent of cell deaths ([2]; RD cells after 48 hours): 63%
tumor volume (HL60 MDR tumor; Day 7, daily IP from one week after implantation): 35 mm^3
tumor volume (HL60 MDR tumor; Day 9, daily IP): 51.56 mm^3
tumor volume (HL60 MDR tumor; Day 15, daily IP): 158.55 mm^3
tumor volume (HL60 MDR tumor; Day 21, daily IP): 1,181.61 mm^3
effect on tumor growth (HL60 MDR tumor; HL60 MDR in nude mice, 21 day period, single agent): increase in tumor growth

O=c1[nH]cc(F)c(=O)[nH]1 [5-FU, 5-Fluorouracil]
half-life in vivo [3]: about 18 minutes

C/C=C/C/C=C/CCC(=O)[C@H]1O[C@H]1C(N)=O [cerulenin]
% Death (B16F1; 4 Hours (Table 1)): 0%
% Death (B16F1; 5.0 Hours (Table 2)): 67%
% Death (B16F1; 24 hours (Table 2)): 72%
% Death (B16F1; .0 Hours (Table 1)): 1%
% Death (HL60; 4 Hours (Table 1)): 4%
% Death (HL60; .0 Hours (Table 1)): 1%
cell survival in microscopy images (HL60; HL60 cells treated with cerulenin, FIG. 4C): large numbers of the cells survived
cell death in microscopy images (HL60 MDR; HL60 MDR cells treated with cerulenin, FIGS. 4E and 4F): large numbers of cell death
% Death (HL60 MDR; HL60 MDR, 4 Hours (Table 1)): 9.6%
% Death (HL60 MDR; HL60 MDR, .0 Hours (Table 1)): 3%
cell death compared to control and non-multidrug resistant cancer cells (HL60 MDR; HL60 MDR, after treatment with cerulenin): greater amounts of cell death
% Death (L1210; 7.0 Hours): 27%
% Death (L1210; 24 Hours): 89%
% Death (L1210 DDP; 7.0 Hours): 14%
% Death (L1210 DDP; 24 Hours): 92%
cell death compared to control and non-multidrug resistant cancer cells (L1210 DDP; after treatment with cerulenin): greater amounts of cell death
tumor observation and activity of mouse (B16F1 melanoma cells; Day 9): Day 9 no visible sign of tumors - very active
tumor observation and activity of mouse (B16F1 melanoma cells; Day 12): Day 12 no visible tumors - very active (FIG. 5D)
tumor observation and activity of mouse (B16F1 melanoma cells; Day 13): Day 13 no visible tumors - very active
development of lethal cancers (B16F1 melanoma cells; mice exposed to melanoma cells treated with cerulenin, during the experiment): did not develop lethal cancers

— patent publication US8293240B2, “Method of treating drug-resistant cancer” (The Regents of the University of Colorado, priority 2004, dated 2012)
